The values below come from PMC8658095, “PHA-680626 Is an Effective Inhibitor of the Interaction between Aurora-A and N-Myc” (International Journal of Molecular Sciences, 2021).

Read-outs that look alike come from different tables or passages of the source.

One may read the IC50 as the point on the concentration scale where inhibition reaches its midpoint. In general, Kd refers to the constant that tells how readily two partners part at equilibrium.

For series [1], the system named is IMR-32 cells. The experiment in a line: FACS analysis (PI) of cell cycle and sub-G1 DNA content. It is filed as cell-based. Particulars: IMR-32, 1 μM, 48 h; DMSO about 8%. A general note: A flow cytometer gives signals particle by particle.
Source text: We then moved to a neuroblastoma MYCN-amplified cell line, IMR-32.
(C) FACS analysis of IMR-32 cells treated as in (A) and stained with PI. The region used to evaluate the fraction of cells displaying sub-G1 DNA content is indicated. The percentage of vital cells distributed in each phase of the cell cycle, as well as the percentage of cells with sub-G1 DNA content calculated on the total acquired events, are shown (one experiment representative of three independent experiments).
To analyze the cell-cycle phases distribution, both non-adherent and adherent cells were collected by centrifugation, washed with PBS, and fixed with 50% methanol overnight at 4 °C. Cell-cycle phase distribution was analyzed after incubation for 30 min in the dark with propidium iodide (PI, 0.03 mg/mL) and RNAsi A (0.2 mg/mL) using a flow cytofluorimeter Epics XL apparatus (Beckman Coulter, Brea, CA, USA). […] Cell samples were analyzed in a Coulter Epics XL cytofluorometer (Beckman Coulter) equipped with EXPO 32 ADC software. At least 10,000 cells per sample were acquired. The percentage of cells in the different phases of cell-cycle and in the sub-G1 compartment was calculated using Flowing Software 2.5.1.
Another series concerns the target T1, AURKA/N-Myc complex (Homo sapiens, UniProt O14965).
T1 construct: endogenous in cells; host or cells: U2OS FRT/TO Flp-In; AURKA endogenous, N-Myc-tFT from a stably integrated, doxycycline-inducible construct
T1 sequence (O14965 1-403): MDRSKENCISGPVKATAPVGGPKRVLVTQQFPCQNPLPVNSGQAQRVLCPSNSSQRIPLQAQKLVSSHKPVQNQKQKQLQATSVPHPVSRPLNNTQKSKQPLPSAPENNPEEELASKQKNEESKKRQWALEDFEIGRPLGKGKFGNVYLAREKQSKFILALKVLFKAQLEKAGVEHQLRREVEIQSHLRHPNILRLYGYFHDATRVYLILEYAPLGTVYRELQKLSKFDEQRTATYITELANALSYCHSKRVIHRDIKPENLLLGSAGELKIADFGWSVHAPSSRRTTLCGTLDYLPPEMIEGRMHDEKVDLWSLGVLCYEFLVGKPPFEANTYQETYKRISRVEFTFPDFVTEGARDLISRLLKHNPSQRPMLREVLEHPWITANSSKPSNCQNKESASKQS
As to the kind of experiment: In situ Proximity Ligation Assay of AURKA/N-Myc in U2OS MYCN cells. It is filed as cell-based.

Series [2] has as its system IMR-32 cells. The experiment in a line: Cell death (PARP-1 cleavage) and morphology of IMR-32 cultures. It is filed as cell-based. Particulars: IMR-32, 1 μM, 48 h.
On the set-up of series [3]: method as in PMID 25175806. Particulars: cited from earlier work.
Series [4] concerns AURKA. Particulars: cited from earlier work.
Series [5] addresses T2, AURKA (Homo sapiens, UniProt O14965).
T2 construct: the catalytic domain of human AURKA (amino acids 122–430); His-tag followed by TEV protease cleavage site (N); made in house; host or cells: bacterial culture (LB, kanamycin, IPTG induction; pETM11)
T2 sequence (O14965 122-403 limits assumed): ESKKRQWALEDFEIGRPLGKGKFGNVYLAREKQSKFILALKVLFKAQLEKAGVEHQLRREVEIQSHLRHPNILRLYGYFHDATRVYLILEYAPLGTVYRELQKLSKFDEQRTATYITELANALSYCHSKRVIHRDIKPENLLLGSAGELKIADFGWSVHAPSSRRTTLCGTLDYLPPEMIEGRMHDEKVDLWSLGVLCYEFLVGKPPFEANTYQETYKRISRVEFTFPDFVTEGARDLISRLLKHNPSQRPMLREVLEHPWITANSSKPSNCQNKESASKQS
The experiment in a line: SPR binding kinetics on immobilized AURKA. Particulars: 25 °C, flow rate 150 μL/min. (SPR reads the build-up and loss of mass on a sensor chip optically.)
Procedure: AURKA was immobilized onto a PCH sensor chip, and each compound was injected at increasing concentrations in the running buffer. The interaction between AURKA and the ligands was indicated by the increase in Resonance Units (RUs), compared to the baseline.
SPR experiments were performed at 25 °C using a Pioneer AE optical biosensor (Molecular Devices-ForteBio, Fremont, CA, USA) equipped with a PCH sensor chip and equilibrated with running buffer 10 mM Hepes pH 7.4, 150 mM NaCl, 1% DMSO, 0.005% Tween20. The sensor chip was chemically activated for 7 min by injecting 175 μL of a 1:1 mixture of 100 mM N-hydroxysuccinimide (NHS) and 400 mM ethyl−3 (3-dimethylamino) propyl carbodiimide (EDC) at a flow rate of 25 μL/min. AURKA was immobilized on both Ch1 and Ch3 channels of the activated sensor chip by using standard amine-coupling procedures [42]. Flow cell Ch2 was left empty and used as a control. Briefly, a 0.1 mg/mL AURKA solution (in 10 mM sodium acetate, pH 4.5) was injected at 10 μL/min on channels 1 and 3 (channel 2 was used as reference), followed by a 70 μL injection of 1 M ethanolamine pH 8.0 to block any remaining activated groups on the surface. AURKA was captured to a density of ~14,000 resonance units (RUs) on both Ch1 and Ch3 flow cells.
A dissociation of 180 s was used and a mild regeneration of the surfaces was carried out every three injections using a solution of 1 M NaCl and 10 mM NaOH. At least two experiments for each analyte were performed. The interaction of the tested inhibitors with immobilized AURKA was detected as a measure of the change in mass concentration, expressed in RUs. […] All sensorgrams were processed using double referencing [44]. First, responses from the reference surface (Ch2) were subtracted from the binding responses collected over the reaction surfaces to correct for bulk refractive index changes between the flow buffer and analyte sample. […] To obtain kinetic rate constants and affinity constants, the corrected response data were fit in the QDAT software. […] The equilibrium dissociation constant (Kd) was determined by the ratio koff/kon.

Source text for AURKA/N-Myc complex: After treatment with the investigated inhibitors, the raw number of isPLA spots within the cell nuclei was normalized by the mean value of the control population. Cells were then assigned to four different classes, based on their number of normalized spots per nucleus (Figure 4C).
(C) in situ Proximity Ligation Assays to visualize the AURKA/N-Myc complex formation. […] The histograms on the right show the distribution (%) of cells in classes, defined by isPLA spot values. Values represent isPLA spots per nucleus, normalized to the average value in control cells (at least 1400 measured cells per condition, from four independent experiments); mean and SDare shown. Statistical analysis by 2-way ANOVA-Tukey’s multiple comparison, *: p < 0.05; ***: p < 0.001.
The Duolink PLA kit (DUO92007, Sigma-Aldrich) was used according to the manufacturer’s instructions. […] Counterstaining with DAPI (DUO82040, DAPI mounting media, Sigma Aldrich) was performed at the end of the procedure. For quantification of isPLA fluorescence signals, samples were analyzed with an inverted microscope Eclipse Ti (Nikon) using a Clara camera (ANDOR technology) and 60× (oil immersion, N.A. 1.4) objective along the z-axis every 0.4 μm for a range of 3.2 μm (for the U2OS MYCN cell line) or 5 μm (for the IMR-32 cell line). Images were acquired in the automated mode with the JOBS module of the Nis-Elements H.C. […]

Take `O=C(O)c1ccc(Nc2ncc3c(n2)-c2ccc(Cl)cc2C(c2c(F)cccc2F)=NC3)cc1` [MLN8054]: in the series on IMR-32 cells [1], the “cells with sub-G1 DNA content” value was roughly 30%. The “AURKA/N-Myc interaction (isPLA spots per nucleus)” value on AURKA/N-Myc complex is “significantly reduced”. In the series with IMR-32 cells [2] (Western blot), the “cleaved PARP-1 (cell death induction)” value is recorded as “a fraction of cleaved PARP-1”.
For the compound `O=C(Nc1ccc(Nc2nccc(Nc3cc(C4CCCC4)[nH]n3)n2)cc1)Nc1cccc(C(F)(F)F)c1` [CD532], in series [3], the half-life entry is “short half-life” and the oral bioavailability entry was “poor oral bioavailability”.
`COc1cc2c(Nc3ccc(NC(=O)c4ccccc4)cc3)ncnc2cc1OCCCN1CCOCC1` [ZM447439]: in the series with AURKA [4], the IC50 is […]. The “AURKA/N-Myc interaction (isPLA spots per nucleus)” value on AURKA/N-Myc complex (U2OS MYCN, 1 μM, MG-132 4 h before fixation) was “no difference between control and treated cells”. Besides, in the series on IMR-32 cells [2] (bright-field microscopy), the cell morphology entry is “only induced spherical mitotic shapes”.
Take `O=C(c1cccc(Cl)c1F)N1CCN(Cc2cccc(Nc3nccs3)n2)CC1` [MK8754, MK8745]: the IC50 in the series on AURKA [4] is 0.6 nM. At AURKA [5], this compound displayed a Koff of 12.0 ± 0.09 s^−1 × 10^−3 and a Kon of 7.8 ± 0.1 M^−1s^−1 × 10^6. On AURKA [5] (koff/kon), this compound came in with a Kd of 1.55 ± 0.03 nM.
